The supplement of paper PMC11208160

Experiment: recombinant UMI read abundance after kanamycin selection (control-corrected) (log10(CPM+1)); higher = more efficient recombination; extreme values may be limits of the assay; sequences stand for … in AGTGCAGAGAAAATCGGCCAGTTTTCTCTGCCTGCAGTCCGCATGCCGTGGGACCCCTTGGGTTCTAACCTGTTGCCTAGATTTATGCAGCGGACTGCCTTTCTCCCAAAGTGATAAACCGG…AGGTTGGTTTCACT; site = the 11-nt donor
In short: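 Each donor and donor-binding-loop pair was tracked by a 12-nt UMI on a plasmid carrying a promoterless kanamycin gene. With a second plasmid supplying a fixed target and T7-inducible IS621 bridge recombinase, the pool was plated in Escherichia coli on IPTG (0.07 mM) plus kanamycin or unselected. Sequencing of recombinant UMIs across the donor–target junction gave counts expressed as log10(CPM+1) after replicate averaging and control-derived scaling.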
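Also: IS621 bridge recombinase in Escherichia coli cells against a fixed T5 target plasmid.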

| Sequence | recombinant UMI read abundance (log10) |
| --- | --- |
| CGTTTGGCATGGACCGGTTTTCCCGGTAATCCGTATTTGCC (site CGTTTGGCTGG) | 0 |
| CGTTTGGCATGGACCGGTTTTCCCGGTAATCCGTATTTGCC (site CGTTTGGCTTG) | 0 |
| CTAATAGCATGGACCGGTTTTCCCGGTAATCCGTATTTGAT (site CTAATAGCTAT) | 2.21 |
| CTAATATCATGGACCGGTTTTCCCGGTAATCCGTATTTGTC (site CTAATATCTGA) | 2.49 |
| CTAATATCATGGACCGGTTTTCCCGGTAATCCGTATTTGTC (site CTAGTATCTGT) | 1.1 |
| CTAATCTCATGGACCGGTTTTCCCGGTAATCCGTATTTGAC (site CTAATCTCTGT) | 2.44 |
| CTAATCTCATGGACCGGTTTTCCCGGTAATCCGTATTTGAC (site CTAGTATCTGT) | 0 |
| CTAATTACATGGACCGGTTTTCCCGGTAATCCGTATTTGCA (site CTAATTACTTG) | 2.07 |
| CTACAAACATGGACCGGTTTTCCCGGTAATCCGTATTTGGA (site CTACAAACTTC) | 1.28 |
| CTACAAACATGGACCGGTTTTCCCGGTAATCCGTATTTGGA (site CTACCAACTTC) | 0.0174 |
| CTACAAACATGGACCGGTTTTCCCGGTAATCCGTATTTGGA (site CTACGAACTTC) | 0.0102 |
| CTACAAACATGGACCGGTTTTCCCGGTAATCCGTATTTGGA (site CTACTAACTTC) | 0.313 |
| CTACCATCATGGACCGGTTTTCCCGGTAATCCGTATTTGGT (site CTACCATCTAC) | 0.00462 |
| CTACGAACATGGACCGGTTTTCCCGGTAATCCGTATTTGGA (site CTACAAACTTC) | 1.46 |
| CTACGAACATGGACCGGTTTTCCCGGTAATCCGTATTTGGA (site CTACCAACTTC) | 0.0142 |
| CTACGAACATGGACCGGTTTTCCCGGTAATCCGTATTTGGA (site CTACGAACTTC) | 1.91 |
| CTACGAACATGGACCGGTTTTCCCGGTAATCCGTATTTGGA (site CTACTAACTTC) | 0.113 |
| CTACTAACATGGACCGGTTTTCCCGGTAATCCGTATTTGGC (site CTACTAACTAC) | 0.561 |
| CTACTAACATGGACCGGTTTTCCCGGTAATCCGTATTTGGC (site CTACTAACTCC) | 0.31 |

| Sequence | recombinant UMI read abundance (log10) |
| --- | --- |
| CTACTAACATGGACCGGTTTTCCCGGTAATCCGTATTTGGC (site CTACTAACTGC) | 2.51 |
| CTACTAACATGGACCGGTTTTCCCGGTAATCCGTATTTGGC (site CTACTAACTTC) | 1.31 |
| CTACTAACATGGACCGGTTTTCCCGGTAATCCGTATTTGGG (site CTACTAACTAC) | 0.0214 |
| CTACTAACATGGACCGGTTTTCCCGGTAATCCGTATTTGGG (site CTACTAACTCC) | 0.54 |
| CTACTAACATGGACCGGTTTTCCCGGTAATCCGTATTTGGG (site CTACTAACTGC) | 0.0111 |
| CTACTAACATGGACCGGTTTTCCCGGTAATCCGTATTTGGG (site CTACTAACTTC) | 0.0179 |
| CTACTATCATGGACCGGTTTTCCCGGTAATCCGTATTTGCC (site CTACTATCTGG) | 2.95 |
| CTACTATCATGGACCGGTTTTCCCGGTAATCCGTATTTGCC (site CTAGTATCTGT) | 0 |
| CTACTATCATGGACCGGTTTTCCCGGTAATCCGTATTTGGA (site CTACTAACTTC) | 0.127 |
| CTACTATCATGGACCGGTTTTCCCGGTAATCCGTATTTGGA (site CTACTACCTTC) | 0.00618 |
| CTACTATCATGGACCGGTTTTCCCGGTAATCCGTATTTGGA (site CTACTAGCTTC) | 0.0148 |
| CTACTATCATGGACCGGTTTTCCCGGTAATCCGTATTTGGA (site CTACTATCTTC) | 2.71 |
| CTAGAATCATGGACCGGTTTTCCCGGTAATCCGTATTTGTC (site CTAGAATCTGA) | 2.71 |
| CTAGAATCATGGACCGGTTTTCCCGGTAATCCGTATTTGTC (site CTAGTATCTGT) | 0.307 |
| CTAGACTCATGGACCGGTTTTCCCGGTAATCCGTATTTGAC (site CTAGACTCTGT) | 3.29 |
| CTAGACTCATGGACCGGTTTTCCCGGTAATCCGTATTTGAC (site CTAGTATCTGT) | 0 |
| CTAGACTCATGGACCGGTTTTCCCGGTAATCCGTATTTGCT (site CTAGACTCTAG) | 3.32 |
| CTAGAGACATGGACCGGTTTTCCCGGTAATCCGTATTTGTC (site CTAGAGACTGA) | 2.28 |
| CTAGCATCATGGACCGGTTTTCCCGGTAATCCGTATTTGAC (site CTAGAATCTGT) | 0.337 |

| Sequence | recombinant UMI read abundance (log10) |
| --- | --- |
| CTAGCATCATGGACCGGTTTTCCCGGTAATCCGTATTTGAC (site CTAGCATCTGT) | 3.04 |
| CTAGCATCATGGACCGGTTTTCCCGGTAATCCGTATTTGAC (site CTAGGATCTGT) | 0.773 |
| CTAGCATCATGGACCGGTTTTCCCGGTAATCCGTATTTGAC (site CTAGTATCTGT) | 2.13 |
| CTAGCGACATGGACCGGTTTTCCCGGTAATCCGTATTTGCC (site CTAGCGACTGG) | 3.09 |
| CTAGCTTCATGGACCGGTTTTCCCGGTAATCCGTATTTGAC (site CTAGCTTCTGT) | 2.18 |
| CTAGCTTCATGGACCGGTTTTCCCGGTAATCCGTATTTGAC (site CTAGTATCTGT) | 0 |
| CTAGGACCATGGACCGGTTTTCCCGGTAATCCGTATTTGAC (site CTAGGACCTGT) | 0 |
| CTAGGACCATGGACCGGTTTTCCCGGTAATCCGTATTTGAC (site CTAGTATCTGT) | 0.00955 |
| CTAGGATCATGGACCGGTTTTCCCGGTAATCCGTATTTGAT (site CTAGGATCTAT) | 1.95 |
| CTAGGATCATGGACCGGTTTTCCCGGTAATCCGTATTTGAT (site CTAGTATCTGT) | 0.00727 |
| CTAGGATCATGGACCGGTTTTCCCGGTAATCCGTATTTGGC (site CTAGGATCTGC) | 2.55 |
| CTAGGATCATGGACCGGTTTTCCCGGTAATCCGTATTTGGC (site CTAGTATCTGT) | 0.606 |
| CTAGGGTCATGGACCGGTTTTCCCGGTAATCCGTATTTGAC (site CTAGGGTCTGT) | 1.41 |
| CTAGGGTCATGGACCGGTTTTCCCGGTAATCCGTATTTGAC (site CTAGTATCTGT) | 1.43 |
| CTAGGTTCATGGACCGGTTTTCCCGGTAATCCGTATTTGCG (site CTAGGTTCTCG) | 2.47 |
| CTAGTAGCATGGACCGGTTTTCCCGGTAATCCGTATTTGAA (site CTAGTAGCTTT) | 2.15 |
| CTAGTAGCATGGACCGGTTTTCCCGGTAATCCGTATTTGAA (site CTAGTATCTGT) | 0 |
| CTAGTATCATGGACCGGTTTTCCCGGTAATCCGTATTTGAC (site ACAGTATCTGT) | 0.654 |
| CTAGTATCATGGACCGGTTTTCCCGGTAATCCGTATTTGAC (site ATACTATCTGT) | 0.00668 |
